# Where “and” joins values, the source holds several entries; their conditions need not be identical. Equal entries are not always repeated.
# Legend:
# [1] = tested on: LNCaP tumor-transplanted mouse; test: Internal radioactivity distribution using LNCaP tumor-transplanted mouse; format: in vivo
# Protocol: (§1) The animal test was performed in compliance with the guidelines of Kyoto University Animal Experiment Committee. Male CB17/IcrJcl-Prkdc^scid mice were purchased from CLEA Japan, Inc. The animals were kept under 12 h/12 h, day/night cycle conditions and fed ad libitum with food and water. LNCaP cells (1.0×10^7 cells/mouse) or PC-3 cells (1.0×10^7 cells/mouse) were suspended in a mixture of PBS and Matrigel manufactured by Corning Life Sciences (1:1, 150 μL) and the suspension was subcutaneously transplanted to the right shoulder of mice under isoflurane anesthesia. Thereafter, the mice were kept for 40 to 60 days.
# (§2) LNCaP or PC-3 tumor-implanted mice were administered saline solutions (185 kBq, 100 μL) of [^111In]In-PSMA-DA1 or [^111In]In-PSMA-DB from the tail vein (n=3 each). Mice were euthanized 1, 4, 24, 48, 96, and 192 hours after administration. Thereafter, blood and each organ were recovered, and the mass and radioactivity of the organs were measured.
# (§3) The percentage (% ID) of the radioactivity amount to the administered radioactivity amount (injected dose) is shown as the value (% ID/g) divided by the blood mass or the organ mass (g).
# LNCaP tumor-implanted mice prepared by the same method as in Example 1-1 were administered a saline solution (241 kBq/100 μL) of [^111In]In-PtDA from the tail vein (n=3). Mice were euthanized 1, 24, and 48 hours after administration. Thereafter, blood and each organ were recovered, and the mass and radioactivity of the organs were measured.
# LNCaP tumor-implanted mice prepared by the same method as in Example 1-1 were administered a saline solution (259 kBq/100 μL each) of each of the radiolabeled compounds in Examples 3-1 to 3-3 or Comparative Examples 2-1 to 2-2 from the tail vein (n=2 to 3). Mice were euthanized 1, 4, 24, 48, 96, and 192 hours after administration. Thereafter, blood and each organ were recovered, and the mass and radioactivity of the organs were measured.
# as §1, with “LNCaP cells (4.3×10^6 cells/mouse) or” for “LNCaP cells (1.0×10^7 cells/mouse) or”, “PC-3 cells (3.3×10^6 cells/mouse) were” for “PC-3 cells (1.0×10^7 cells/mouse) were”, “shoulder of CB17/IcrJcl-Prkdc^scid mice under” for “shoulder of mice under”
# (§4) Mice were euthanized 1, 4, 24, 48, 96, and 192 hours after administration. Thereafter, blood and each organ were recovered, and the mass and radioactivity of the organs were measured.
# The results are shown in Table 12 (Mean value±standard deviation, n=3).
# [2] = tested on: PC-3 tumor-transplanted mouse; test: Internal radioactivity distribution using PC-3 tumor-transplanted mouse; format: in vivo
# Protocol: as §1, §2, §3
# as §1, with “LNCaP cells (4.3×10^6 cells/mouse) or” for “LNCaP cells (1.0×10^7 cells/mouse) or”, “PC-3 cells (3.3×10^6 cells/mouse) were” for “PC-3 cells (1.0×10^7 cells/mouse) were”, “shoulder of CB17/IcrJcl-Prkdc^scid mice under” for “shoulder of mice under”
# as §4
# The results are shown in Table 13 (Mean value±standard deviation, n=3).
# [3] = 24 h after administration, PC-3 tumor-transplanted mice
compound,measurement,setting,value
"O=C(O)CC[C@H](NC(=O)N[C@@H](CCCCNC(=O)[C@H](Cc1ccc2ccccc2c1)NC(=O)[C@H]1CC[C@H](CNC(=O)CCC(C(=O)O)N2CCN(CC(=O)O)CCN(C(CCC(=O)N[C@@H](CCCCNC(=O)CCCc3ccc(I)cc3)C(=O)O)C(=O)O)CCN(CC(=O)O)CC2)CC1)C(=O)O)C(=O)O (some centres unmarked) [[^111In]In-PSMA-NAT-DA1, metal not drawn]",Blood,[1]; 1 h after administration,39.8 ± 2.91 % ID/g
same,Brain,[1]; 1 h after administration,0.63 ± 0.03 % ID/g
same,Heart,[1]; 1 h after administration,10.8 ± 1.31 % ID/g
same,Intestine,[1]; 1 h after administration,3.40 ± 0.24 % ID/g
same,Kidney,[1]; 1 h after administration,41.5 ± 4.27 % ID/g
same,LNCaP Tumor,[1]; 1 h after administration,23.0 ± 2.20 % ID/g
same,Liver,[1]; 1 h after administration,8.24 ± 2.38 % ID/g
same,Lung,[1]; 1 h after administration,28.1 ± 8.65 % ID/g
same,Muscle,[1]; 1 h after administration,2.82 ± 0.55 % ID/g
same,Pancreas,[1]; 1 h after administration,7.32 ± 1.27 % ID/g
same,Spleen,[1]; 1 h after administration,31.2 ± 2.84 % ID/g
same,Stomach (% ID),[1]; 1 h after administration,0.94 ± 0.35 % ID
same,Blood,[1]; 4 h after administration,38.8 ± 8.25 % ID/g
same,Brain,[1]; 4 h after administration,0.83 ± 0.20 % ID/g
same,Heart,[1]; 4 h after administration,12.2 ± 2.44 % ID/g
same,Intestine,[1]; 4 h after administration,3.47 ± 0.42 % ID/g
same,Kidney,[1]; 4 h after administration,66.2 ± 13.0 % ID/g
same,LNCaP Tumor,[1]; 4 h after administration,43.6 ± 8.49 % ID/g
same,Liver,[1]; 4 h after administration,8.38 ± 2.27 % ID/g
same,Lung,[1]; 4 h after administration,26.5 ± 5.70 % ID/g
same,Muscle,[1]; 4 h after administration,3.69 ± 0.83 % ID/g
same,Pancreas,[1]; 4 h after administration,5.85 ± 1.34 % ID/g
same,Spleen,[1]; 4 h after administration,23.0 ± 3.16 % ID/g
same,Stomach (% ID),[1]; 4 h after administration,1.32 ± 0.19 % ID
same,Blood,[1]; 24 h after administration,10.9 ± 5.55 % ID/g
same,Brain,[1]; 24 h after administration,0.27 ± 0.13 % ID/g
same,Heart,[1]; 24 h after administration,3.14 ± 1.52 % ID/g
same,Intestine,[1]; 24 h after administration,1.26 ± 0.70 % ID/g
same,Kidney,[1]; 24 h after administration,37.1 ± 19.3 % ID/g
same,LNCaP Tumor,[1]; 24 h after administration,51.9 ± 39.3 % ID/g
same,Liver,[1]; 24 h after administration,2.73 ± 1.08 % ID/g
same,Lung,[1]; 24 h after administration,8.76 ± 4.02 % ID/g
same,Muscle,[1]; 24 h after administration,1.23 ± 0.36 % ID/g
same,Spleen,[1]; 24 h after administration,13.5 ± 8.18 % ID/g
same,Stomach (% ID),[1]; 24 h after administration,0.28 ± 0.16 % ID
same,Blood,[1]; 48 h after administration,12.3 % ID/g and 12.3 ± 1.56 % ID/g
same,Brain,[1]; 48 h after administration,0.45 ± 0.03 % ID/g
same,Heart,[1]; 48 h after administration,4.68 ± 0.92 % ID/g
same,Intestine,[1]; 48 h after administration,1.39 ± 0.06 % ID/g
same,Kidney,[1]; 48 h after administration,79.0 ± 6.78 % ID/g
same,LNCaP Tumor,[1]; 48 h after administration,131.6 ± 22.0 % ID/g
same,Liver,[1]; 48 h after administration,4.49 ± 0.71 % ID/g
same,Lung,[1]; 48 h after administration,11.1 ± 2.24 % ID/g
same,Muscle,[1]; 48 h after administration,1.48 ± 0.31 % ID/g
same,Pancreas,[1]; 48 h after administration,2.26 ± 0.15 % ID/g
same,Spleen,[1]; 48 h after administration,17.8 ± 1.05 % ID/g
same,Stomach (% ID),[1]; 48 h after administration,0.44 ± 0.09 % ID
same,Blood,[1]; 96 h after administration,4.07 ± 1.37 % ID/g
same,Brain,[1]; 96 h after administration,0.18 ± 0.04 % ID/g
same,Heart,[1]; 96 h after administration,2.10 ± 0.83 % ID/g
same,Intestine,[1]; 96 h after administration,0.86 ± 0.54 % ID/g
same,Kidney,[1]; 96 h after administration,22.0 ± 14.9 % ID/g
same,LNCaP Tumor,[1]; 96 h after administration,56.2 ± 35.6 % ID/g
same,Liver,[1]; 96 h after administration,2.31 ± 0.89 % ID/g
same,Lung,[1]; 96 h after administration,4.55 ± 2.33 % ID/g
same,Muscle,[1]; 96 h after administration,0.59 ± 0.09 % ID/g
same,Pancreas,[1]; 96 h after administration,2.60 ± 3.18 % ID/g
same,Spleen,[1]; 96 h after administration,6.33 ± 5.25 % ID/g
same,Stomach (% ID),[1]; 96 h after administration,0.19 ± 0.10 % ID
same,Blood,[1]; 192 h after administration,2.47 ± 0.52 % ID/g
same,Heart,[1]; 192 h after administration,1.19 ± 0.24 % ID/g
same,Intestine,[1]; 192 h after administration,0.55 ± 0.15 % ID/g
same,Kidney,[1]; 192 h after administration,11.9 ± 2.08 % ID/g
same,LNCaP Tumor,[1]; 192 h after administration,35.0 ± 27.3 % ID/g
same,Liver,[1]; 192 h after administration,2.25 ± 0.45 % ID/g
same,Lung,[1]; 192 h after administration,2.81 ± 0.36 % ID/g
same,Muscle,[1]; 192 h after administration,0.33 ± 0.05 % ID/g
same,Pancreas,[1]; 192 h after administration,0.94 ± 0.32 % ID/g
same,Spleen,[1]; 192 h after administration,3.77 ± 0.54 % ID/g
same,Stomach (% ID),[1]; 192 h after administration,0.12 ± 0.01 % ID
same,Blood,[2]; [3],5.73 ± 1.10 % ID/g
same,Brain,[2]; [3],0.22 ± 0.03 % ID/g
same,Heart,[2]; [3],2.67 ± 0.58 % ID/g
same,Intestine,[2]; [3],0.68 ± 0.07 % ID/g
same,Kidney,[2]; [3],27.9 ± 6.05 % ID/g
same,Liver,[2]; [3],1.74 ± 0.37 % ID/g
same,Lung,[2]; [3],7.41 ± 1.13 % ID/g
same,Muscle,[2]; [3],0.83 ± 0.26 % ID/g
same,PC-3 Tumor,[2]; [3],3.21 ± 1.00 % ID/g
same,Pancreas,[2]; [3],1.25 ± 0.04 % ID/g
same,Spleen,[2]; [3],6.94 ± 4.55 % ID/g
same,Stomach (% ID),[2]; [3],0.15 ± 0.03 % ID
same,accumulation at the PC-3 tumor compared with the LNCaP tumor at the same time point (in words),"[2]; mouse, in vivo",significantly lower
